pKd: −log10 of the molar value.
Assays:
[1] = target: T1, RmlA (glucose-1-phosphate thymidylyltransferase, gene 1774) (Pectobacterium actinidiae, UniProt A0ABW8GFN0); assay: microscale thermophoresis, FITC-labelled RmlA; conditions: read-out: binding affinity; 50 mM Tris-HCl, 1 mM MgCl2, 0.05% Tween 20, pH 8.0; ligand as disodium salt
T1 construct: gene rfbA; intact rmlA cloned from GX1 genomic DNA into pET32a; fusion protein; E. coli ArcticExpress (DE3); FITC-labelled

[2] = target: T2, RmlA (glucose-1-phosphate thymidylyltransferase, gene 1774) (Pectobacterium actinidiae, UniProt A0ABW8GFN0, G107A/D108A/N109A/G144A/E159A/V170A/E196A); conditions: read-out: binding affinity; 50 mM Tris-HCl, 1 mM MgCl2, 0.05% Tween 20, pH 8.0; ligand as disodium salt
T2 construct: gene rfbA

Structure (SMILES)	pKd [1]	pKd [2]
Cc1cn([C@H]2C[C@H](O)[C@@H](COP(=O)(O)OP(=O)(O)OP(=O)(O)O)O2)c(=O)[nH]c1=O [dTTP]	3.70	2.57
O=P(O)(O)O[C@H]1O[C@H](CO)[C@@H](O)[C@H](O)[C@H]1O [G-1-P]	4.13	2.05
